The text below walks through data of US9107411B2, “Indolecarboxamides and benzimidazolecarboxamides as insecticides and acaricides” (BAYER INTELLECTUAL PROPERTY GMBH, priority 2011, dated 2015).

The test system of data set [1] is Phaedon cochleariae. Briefly: Phaedon test (PHAECO spray treatment). The following applies: Chinese cabbage leaf discs, after 7 days. The format is in vivo. As to the method: Phaedon Test ([…] Spray Treatment) Solvent: 78.0 parts by weight of acetone • • 1.5 parts by weight of dimethylformamide Emulsifier: 0.5 part by weight of alkylaryl polyglycol ether To produce an appropriate active ingredient formulation, 1 part by weight of active ingredient is mixed with the stated amounts of solvent and emulsifier, and the concentrate is diluted with emulsifier-containing water to the desired concentration. Leaf discs of Chinese cabbage (Brassica pekinensis) are sprayed with an active ingredient formulation of the desired concentration and, after drying, populated with larvae of the mustard beetle (Phaedon cochleariae). After 7 days, the efficacy in % is determined. 100% means that all of the beetle larvae have been killed; 0% means that none of the beetle larvae have been killed.

In data set [2] the test system is Spodoptera frugiperda. Briefly: Spodoptera frugiperda test (SPODFR spray treatment). The format is in vivo. Particulars: maize leaf discs, after 7 days. The procedure:
Spodoptera frugiperda Test (SPODFR Spray Treatment) Solvent: 78.0 parts by weight of acetone • • 1.5 parts by weight of dimethylformamide To produce an appropriate active ingredient formulation, 1 part by weight of active ingredient is mixed with the stated amounts of solvent and emulsifier, and the concentrate is diluted with emulsifier-containing water to the desired concentration. Leaf discs of maize (Zea mays) are sprayed with an active ingredient formulation of the desired concentration and, after drying, populated with caterpillars of the armyworm (Spodoptera frugiperda). After 7 days, the efficacy in % is determined 100% means that all of the caterpillars have been killed; 0% means that none of the caterpillars have been killed.

Data set [3] relates to Tetranychus urticae. Nature of the data set: Tetranychus test, OP-resistant (TETRUR spray treatment). Particulars: bean leaf discs, after 6 days. The format is in vivo. As to the method: Tetranychus Test, OP-Resistant (TETRUR Spray Treatment)
Solvent: 78.0 parts by weight of acetone • • 1.5 parts by weight of dimethylformamide
Emulgator: 0.5 part by weight of alkylaryl polyglycol ether
To produce an appropriate active ingredient formulation, 1 part by weight of active ingredient is mixed with the stated amounts of solvent and emulsifier, and the concentrate is diluted with emulsifier-containing water to the desired concentration.
Discs of bean leaves (Phaseolus vulgaris) infested by all stages of the red spider mite (Tetranychus urticae) are sprayed with an active ingredient formulation of the desired concentration.
After 6 days, the efficacy in % is determined. 100% means that all of the spider mites have been killed; 0% means that none of the spider mites have been killed.

The nature of data set [4]: logP (HPLC-MS). The format is physicochemical.
In data set [5] the test system is Boophilus microplus. Briefly: Boophilus microplus test (BOOPMI injection). The following applies: application rate 20 μg/animal; injected into the abdomen; after 7 days. The format is in vivo. The procedure:
Boophilus microplus Test (BOOPMI Injection) Solvent: dimethyl sulphoxide To prepare an appropriate active ingredient formulation, 10 mg of active ingredient are mixed with 0.5 ml of solvent and the concentrate is diluted with solvent to the desired concentration. The active ingredient solution is injected into the abdomen (Boophilus microplus), and the animals are transferred into dishes and stored in a climate-controlled room. After 7 days, the efficacy in % is determined. The activity is assessed by laying of fertile eggs. 100% means that none of the ticks has laid any fertile eggs.

Data set [6] relates to Ctenocephalides felis. Briefly: Ctenocephalides felis oral (CTECFE). The format is in vivo. Particulars: application rate 100 ppm in citrated cattle blood; after 2 days. As to the method: Ctenocephalides felis Oral ([…]) Solvent: 1 part by weight of dimethyl sulphoxide For the purpose of preparing an appropriate active ingredient formulation, 10 mg of active ingredient are mixed with 0.5 ml of dimethyl sulphoxide. A portion of the concentrate is diluted with citrated cattle blood, and the desired concentration is prepared. About 20 unfed adult fleas (Ctenocephalides felis) are placed into a chamber which is closed at the top and bottom with gauze. A metal cylinder whose bottom end is closed with Parafilm is placed onto the chamber. The cylinder contains the blood/active ingredient formulation, which can be imbibed by the fleas through the Parafilm membrane. After 2 days, the kill in % is determined 100% means that all of the fleas have been killed; 0% means that none of the fleas have been killed.

Data set [7] has as its system Lucilia cuprina larvae. Nature of the data set: Lucilia cuprina test (LUCICU). The format is in vivo. Particulars: application rate 100 ppm; treated horse meat; after 2 days. As to the method:
Lucilia cuprina Test (LUCICU) Solvent: dimethyl sulphoxide To prepare an appropriate active ingredient formulation, 10 mg of active ingredient are mixed with 0.5 ml of dimethyl sulphoxide and the concentrate is diluted with water to the desired concentration. Vessels containing horse meat treated with the active ingredient formulation of the desired concentration are populated with about 20 Lucilia cuprina larvae. After 2 days, the kill in % is determined. 100% means that all of the larvae have been killed; 0% means that none of the larvae have been killed.

Setting [8] is: HPLC, reversed-phase column (C18), 43° C., acidic range pH 2.7, EEC directive 79/831 Annex V.A8, two values = both regioisomers (G = N).
Where [9] appears, read: HPLC, reversed-phase column (C18), acidic range pH 2.7, acetonitrile (0.1% formic acid)/water gradient, 43° C., calibration with unbranched alkan-2-ones.

Read-outs that look alike come from different tables or passages of the source.

In the case of `N#CC1(NC(=O)c2cc3cc(C(=O)NC(c4cccc(C(F)(F)F)c4)C(F)(F)F)n(C4CC4)c3cc2Cl)CC1` (stereo not shown) [Compound 302, 6-chloro-N^5-(1-cyanocyclopropyl)-1-cyclopropyl-N^2-{2,2,2-trifluoro-1-[3-(trifluoromethyl)phenyl]ethyl}-1H-indole-2,5-dicarboxamide], the pest or weed control at 100 g/ha in data set [1] (Phaedon cochleariae, foliar, 168 h, application rate 100 g/ha, read-out: efficacy in %) was determined as 100%. Moreover, the efficacy in % in data set [2] (application rate 100 g/ha) and in data set [3] (application rate 100 g/ha) was 100% each time. Besides, the chromatographic logP worked out at 3.6 in data set [4] (HPLC, reversed-phase column (C18), 43° C., acidic range pH 2.7, EEC directive 79/831 Annex V.A8, two values = both regioisomers (G = N), read-out: log p) and 3.59 in data set [4] (HPLC-MS).
`CCn1c(C(=O)NC(c2ccc(F)c(C(F)(F)F)c2)C(F)(F)F)cc2cc(C(=O)NC(C)C)c(C)cc21` (stereo not shown) [Compound 305]: the efficacy in % in data set [1] (application rate 100 g/ha), in data set [2] (application rate 100 g/ha) and in data set [3] (application rate 100 g/ha) was 100% in each case. Besides, in data set [4] (setting [8]), the log p is listed as 4.16.
Turning to `CCn1c(C(=O)NC(c2cc(Cl)cc(Cl)c2)C(F)(F)F)cc2cc(C(=O)NC3(C#N)CC3)c(Cl)cc21` (stereo not shown) [Compound 43], the efficacy in % in data set [1] (application rate 100 g/ha), in data set [2] (application rate 100 g/ha) and in data set [3] (application rate 100 g/ha) was 100% each time. In data set [4] (setting [9]), the log p came out at 4.14.
With `CCn1c(C(=O)NC(c2cccc(C(F)(F)F)c2)C(F)(F)F)nc2cc(C(=O)NC3CC3)c(Cl)cc21` (stereo not shown) [Compound 4, 6-chloro-N^5-cyclopropyl-1-ethyl-N^2-{2,2,2-trifluoro-1-[3-(trifluoromethyl)phenyl]ethyl}-1H-benzimidazole-2,5-dicarboxamide], the pest or weed control at 500 g/ha in data set [1] (Phaedon cochleariae, foliar, 168 h, application rate 500 g/ha, read-out: efficacy in %) was found to be 100%. The efficacy in % in data set [2] (application rate 500 g/ha) and in data set [3] (application rate 500 g/ha) was 100% in each case. In addition, the chromatographic logP in data set [4] (HPLC, reversed-phase column (C18), acidic range pH 2.7, acetonitrile (0.1% formic acid)/water gradient, 43° C., calibration with unbranched alkan-2-ones, read-out: log p) stood at 3.67; in data set [4] (HPLC-MS) it was 3.71.
As to `CCN(CC)C(=O)c1cc2cc(C(=O)NC(c3ccc(F)c(Cl)c3)C(F)(F)F)n(CC)c2cc1C` (stereo not shown) [Compound 320], the efficacy in % in data set [1] (application rate 100 g/ha), in data set [2] (application rate 100 g/ha) and in data set [3] (application rate 100 g/ha) was 100% throughout. Besides, the log p in data set [4] (setting [8]) was found to be 4.35.
Turning to `C#CCn1c(C(=O)NC(c2ccc(F)c(Cl)c2)C(F)(F)F)cc2cc(C(=O)NC3(C#N)CC3)c(Cl)cc21` (stereo not shown) [Compound 64], the efficacy in % in data set [1] (application rate 100 g/ha), in data set [2] (application rate 100 g/ha) and in data set [3] (application rate 100 g/ha) was 100% throughout. Moreover, the log p in data set [4] (setting [9]) was found to be 3.41.
Consider `CCn1c(C(=O)NC(c2ccc(Cl)c(Cl)c2)C(F)(F)F)cc2cc(C(=O)NC3CC3)c(C)cc21` (stereo not shown) [Compound 297], for which the efficacy in % in data set [1] (application rate 100 g/ha), in data set [2] (application rate 100 g/ha) and in data set [3] (application rate 100 g/ha) was 100% each time. Moreover, the log p in data set [4] (setting [8]) is reported as 3.99.
For `C#CCn1c(C(=O)NC(c2cc(Cl)c(Cl)c(Cl)c2)C(F)(F)F)cc2cc(C(=O)NC3(C#N)CC3)c(Cl)cc21` (stereo not shown) [Compound 277], the efficacy in % in data set [1] (application rate 100 g/ha) turned out to be 100%; in data set [2] (application rate 100 g/ha), 100%; in data set [3] (application rate 100 g/ha) it was 90%. The same compound yielded a log p in data set [4] (setting [9]) of 4.24.
Consider `C#CCn1c(C(=O)NC(c2cccc(OC(F)F)c2)C(F)(F)F)cc2cc(C(=O)NC3CC3)c(Cl)cc21` (stereo not shown) [Compound 278], for which the efficacy in % in data set [1] (application rate 100 g/ha) is on record as 100%; in data set [2] (application rate 100 g/ha), 100%; in data set [3] (application rate 100 g/ha) it was 90%. In data set [4] (setting [9]), this compound showed a log p of 3.32.
Consider `CCn1c(C(=O)NC(c2cccc(C(F)(F)F)c2)C(F)(F)F)cc2cc(C(=O)NCCC#N)c(Cl)cc21` (stereo not shown) [Compound 263], for which the efficacy in % in data set [1] (application rate 100 g/ha), in data set [2] (application rate 100 g/ha) and in data set [3] (application rate 100 g/ha) was 100% throughout. This compound also registered a log p in data set [4] (setting [9]) of 3.53.
With `CCn1c(C(=O)NC(c2cc(F)cc(Cl)c2)C(F)(F)F)cc2cc(C(=O)NC3(C#N)CC3)c(C)cc21` (stereo not shown) [Compound 293], the efficacy in % in data set [1] (application rate 100 g/ha), in data set [2] (application rate 100 g/ha) and in data set [3] (application rate 100 g/ha) was 100% each time. The compound also yielded a log p in data set [4] (setting [8]) of 3.85.
Take `CCn1c(C(=O)NC(c2ccc3c(c2)OC(F)(F)O3)C(F)(F)F)cc2cc(C(=O)NC3(C#N)CC3)c(C)cc21` (stereo not shown) [Compound 308]: the efficacy in % worked out at 100% in data set [1] (application rate 100 g/ha), 100% in data set [2] (application rate 100 g/ha) and 90% in data set [3] (application rate 100 g/ha). In data set [4] (setting [8]), this compound came in with a log p of 3.80.
For `Cn1c(C(=O)NC(c2ccc(F)c(Br)c2)C(F)(F)F)cc2cc(C(=O)NC3CC3)c(Cl)cc21` (stereo not shown) [Compound 51], the efficacy in % in data set [1] (application rate 100 g/ha), in data set [2] (application rate 100 g/ha) and in data set [3] (application rate 100 g/ha) was 100% throughout. This compound also had a log p in data set [4] (setting [9]) of 3.61.
For the compound `CCOCn1c(C(=O)NC(c2cccc(C(F)(F)F)c2)C(F)(F)F)cc2cc(C(=O)NC3(C#N)CC3)c(Cl)cc21` (stereo not shown) [Compound 287], the efficacy in % in data set [1] (application rate 100 g/ha), in data set [2] (application rate 100 g/ha) and in data set [3] (application rate 100 g/ha) was 100% throughout. Besides, the log p in data set [4] (setting [8]) was determined as 3.70.
For `Cn1c(C(=O)NC(c2ccc(F)c(Cl)c2)C(F)(F)F)cc2cc(C(=O)NC3CC3)c(Cl)cc21` (stereo not shown) [Compound 53], the efficacy in % in data set [1] (application rate 100 g/ha), in data set [2] (application rate 100 g/ha) and in data set [3] (application rate 100 g/ha) was 100% each time. In addition, in data set [4] (setting [9]), the log p was determined as 3.42.
Consider `CCn1c(C(=O)NC(c2cccc(C(F)(F)F)c2)C(F)(F)F)cc2cc(C(=O)NC(CF)CF)c(Cl)cc21` (stereo not shown) [Compound 11], for which, in data set [5], the “efficacy (laying of fertile eggs)” value worked out at 100%. The “efficacy (kill in %)” value in data set [6] amounted to 80%; in data set [7], 100%. In addition, the efficacy in % in data set [1] (application rate 100 g/ha) stood at 100%. In addition, the log p in data set [4] (setting [9]) was found to be 3.86.
Turning to `CCn1c(C(=O)NC(c2cccc(Cl)c2)C(F)(F)F)cc2cc(C(=O)NC3(C#N)CC3)c(C)cc21` (stereo not shown) [Compound 185], the efficacy in % in data set [1] (application rate 100 g/ha), in data set [2] (application rate 100 g/ha) and in data set [3] (application rate 100 g/ha) was 100% throughout. The compound also displayed a log p in data set [4] (setting [9]) of 3.58.
As for `C#CCC(C#N)NC(=O)c1cc2cc(C(=O)NC(c3cccc(C(F)(F)F)c3)C(F)(F)F)n(CC)c2cc1Cl` (stereo not shown) [Compound 268], the efficacy in % in data set [1] (application rate 100 g/ha), in data set [2] (application rate 100 g/ha) and in data set [3] (application rate 100 g/ha) was 100% each time. This compound also showed a log p in data set [4] (setting [9]) of 3.91.
Regarding `C#CCn1c(C(=O)NC(c2cc(Cl)cc(Cl)c2)C(F)(F)F)cc2cc(C(=O)NC3(C#N)CC3)c(Cl)cc21` (stereo not shown) [Compound 66], the efficacy in % in data set [1] (application rate 100 g/ha), in data set [2] (application rate 100 g/ha) and in data set [3] (application rate 100 g/ha) was 100% each time. In addition, the log p in data set [4] (setting [9]) was 3.87.
